# Experimental data published in patent US20090054454A1, “BENZOFURANYL- AND BENZOTHIENYL- PIPERAZINYL QUINOLINES AND METHODS OF THEIR USE” (priority 2007, published 2009).
# Biological target: Human 5-HT Transporter (Homo sapiens, UniProt P31645)
# Assay: Inhibition of 3H-5-HT Uptake by Cells Possessing the Human 5-HT Transporter (HC 5HT Transporter), Jar cells
# Details: HC-5HTC Transporter Ki (nM), Jar cells treated with staurosporine
# Sequence of Human 5-HT Transporter (P31645 whole entry): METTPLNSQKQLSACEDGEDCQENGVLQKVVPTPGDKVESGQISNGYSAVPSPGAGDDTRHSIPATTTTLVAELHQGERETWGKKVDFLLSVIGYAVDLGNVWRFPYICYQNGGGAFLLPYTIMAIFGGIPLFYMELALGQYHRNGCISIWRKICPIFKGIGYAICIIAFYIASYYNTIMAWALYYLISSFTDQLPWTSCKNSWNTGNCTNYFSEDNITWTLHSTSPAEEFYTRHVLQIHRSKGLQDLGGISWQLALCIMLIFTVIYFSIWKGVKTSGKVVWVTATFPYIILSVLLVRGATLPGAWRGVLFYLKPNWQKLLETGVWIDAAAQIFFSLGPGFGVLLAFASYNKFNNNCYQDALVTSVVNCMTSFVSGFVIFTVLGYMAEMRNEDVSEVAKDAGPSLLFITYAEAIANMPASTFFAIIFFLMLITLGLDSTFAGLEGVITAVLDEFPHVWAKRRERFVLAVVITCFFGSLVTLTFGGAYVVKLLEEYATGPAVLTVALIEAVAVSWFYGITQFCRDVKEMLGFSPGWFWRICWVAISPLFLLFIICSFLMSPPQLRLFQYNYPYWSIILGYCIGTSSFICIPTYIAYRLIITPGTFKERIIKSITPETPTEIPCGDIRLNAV
row,Structure (SMILES),Ki [nM]
1,"Clc1cc(N2CCN(CCc3coc4ccccc34)CC2)c2ncccc2c1 [Compound 2, 8-{4-[2-(1-benzofuran-3-yl)ethyl]-1-piperazinyl}-6-chloroquinoline]",1710
2,"Cc1cc(N2CCN(CCc3coc4ccccc34)CC2)c2ncccc2c1 [Compound 3, 8-{4-[2-(1-benzofuran-3-yl)ethyl]-1-piperazinyl}-6-methylquinoline]",75.6
3,"COc1cc(N2CCN(CCc3coc4ccccc34)CC2)c2ncccc2c1 [Compound 4, 8-{4-[2-(1-benzofuran-3-yl)ethyl]-1-piperazinyl}-6-methoxyquinoline]",612
4,"Clc1ccc2c(CCN3CCN(c4cccc5cccnc45)CC3)coc2c1 [Compound 5, 8-{4-[2-(6-chloro-1-benzofuran-3-yl)ethyl]-1-piperazinyl}-quinoline]",1.6
5,"Fc1cc(N2CCN(CCc3coc4cc(Cl)ccc34)CC2)c2ncccc2c1 [Compound 6, 8-{4-[2-(6-chloro-1-benzofuran-3-yl)ethyl]-1-piperazinyl}-6-fluoro-quinoline]",1080
6,"Cc1cc(N2CCN(CCc3coc4cc(Cl)ccc34)CC2)c2ncccc2c1 [Compound 8, 8-{4-[2-(6-chloro-1-benzofuran-3-yl)ethyl]-1-piperazinyl}-6-methyl-quinoline]",1780
7,"COc1ccc2c(CCN3CCN(c4cccc5cccnc45)CC3)coc2c1 [Compound 9, 8-{4-[2-(6-methoxy-1-benzofuran-3-yl)ethyl]-1-piperazinyl}-quinoline]",71.3
8,"COc1ccc2c(CCN3CCN(c4cc(C)cc5cccnc45)CC3)coc2c1 [Compound 10, 8-{4-[2-(6-methoxy-1-benzofuran-3-yl)ethyl]-1-piperazinyl}-6-methyl-quinoline]",206
9,"COc1ccc2c(CCN3CCN(c4cc(Cl)cc5cccnc45)CC3)coc2c1 [Compound 11, 8-{4-[2-(6-methoxy-1-benzofuran-3-yl)ethyl]-1-piperazinyl}-6-chloro-quinoline]",540
10,"Clc1ccc2occ(CCN3CCN(c4cccc5cccnc45)CC3)c2c1 [Compound 12, 8-{4-[2-(5-chloro-1-benzofuran-3-yl)ethyl]-1-piperazinyl}-quinoline]",42.2
11,"Clc1cc(N2CCN(CCc3coc4ccc(Cl)cc34)CC2)c2ncccc2c1 [Compound 13, 8-{4-[2-(5-chloro-1-benzofuran-3-yl)ethyl]-1-piperazinyl}-6-chloro-quinoline]",270
12,"Cc1cc(N2CCN(CCc3coc4ccc(Cl)cc34)CC2)c2ncccc2c1 [Compound 14, 8-{4-[2-(5-chloro-1-benzofuran-3-yl)ethyl]-1-piperazinyl}-6-methyl-quinoline]",9.82
13,"Fc1ccc2occ(CCN3CCN(c4cccc5cccnc45)CC3)c2c1 [Compound 15, 8-{4-[2-(5-fluoro-1-benzofuran-3-yl)ethyl]-1-piperazinyl}-quinoline]",67.2
14,"COc1cc(N2CCN(CCc3coc4ccc(F)cc34)CC2)c2ncccc2c1 [Compound 16, 8-{4-[2-(5-fluoro-1-benzofuran-3-yl)ethyl]-1-piperazinyl}-6-methoxy-quinoline]",180
15,"Fc1cc(N2CCN(CCc3coc4ccc(F)cc34)CC2)c2ncccc2c1 [Compound 17, 8-{4-[2-(5-fluoro-1-benzofuran-3-yl)ethyl]-1-piperazinyl}-6-fluoro-quinoline]",50.9
16,"COc1cccc2c(CCN3CCN(c4cccc5cccnc45)CC3)coc12 [Compound 18, 8-{4-[2-(7-methoxy-1-benzofuran-3-yl)ethyl]-1-piperazinyl}-quinoline]",9.46
17,"COc1cccc2c(CCN3CCN(c4cc(Cl)cc5cccnc45)CC3)coc12 [Compound 20, 8-{4-[2-(7-methoxy-1-benzofuran-3-yl)ethyl]-1-piperazinyl}-6-chloro-quinoline]",47.7
18,"COc1ccc2occ(CCN3CCN(c4cc(C)cc5cccnc45)CC3)c2c1 [Compound 23, 8-{4-[2-(5-methoxy-1-benzofuran-3-yl)ethyl]-1-piperazinyl}-6-methyl-quinoline]",182
